From patent publication US9278091B2, “Compounds for the treatment of Clostridium difficile associated disease” (Summit Therapeutics PLC, priority 2010, dated 2016)

What was measured:
Format in all cases: cell-based
[1] = test system: Clostridium difficile ATCC700057; test: MIC by broth microdilution (CLSI) against Clostridium difficile; conditions: Clostridioides difficile, read-out: minimum inhibitory concentration (MIC) C. difficile
Experimental: (§1) The term “minimum inhibitory concentration” or “MIC” defines the lowest concentration of a test compound that is needed to inhibit growth of a bacterial isolate in vitro. A common method for determining the MIC of an antibiotic is to prepare several tubes containing serial dilutions of the test compound that are then inoculated with the bacterial isolate of interest.
(§2) MIC data were determined by broth microdilution according to CLSI protocols described in Methods for Antimicrobial Susceptibility Testing of Anaerobic Bacteria; Approved Standard-Seventh Edition [M11-A7, Vol. 27, No 2, January 2007] and Methods for Dilution Antimicrobial Susceptibility Tests for Bacteria That Grow Aerobically; Approved Standard—Seventh Edition [M7-A7, Vol. 26, No 2, January 2006].

[2] = test system: Bacteroides fragilis ATCC 25285; test: MIC by broth microdilution (CLSI) against B. fragilis; conditions: ATCC25285, read-out: minimum inhibitory concentration (MIC) B. fragilis
Experimental: as §1, §2
(§3) The bacterial strains used were: • Bacteroides fragilis ATCC 25285 • Escherichia coli ATCC25922 • Lactobacillus paracasei Z1 83 • Bifidobacterium dentium NCTC 11816 • B. adolescentis MWR144 • Staphylococcus aureus ATCC29213 • Enterococcus faecalis ATCC29212

[3] = test system: Escherichia coli ATCC25922; test: MIC by broth microdilution (CLSI) against E. coli; conditions: read-out: minimum inhibitory concentration (MIC) E. coli
Experimental: as §1, §2, §3

[4] = test system: Lactobacillus paracasei Z1 83; test: MIC by broth microdilution (CLSI) against L. paracasei; conditions: Lacticaseibacillus paracasei, Z183, read-out: minimum inhibitory concentration (MIC) L. paracasei
Experimental: as §1, §2, §3

[5] = test system: Bifidobacterium dentium NCTC 11816; test: MIC by broth microdilution (CLSI) against B. dentium; conditions: NCTC11816, read-out: minimum inhibitory concentration (MIC) B. dentium
Experimental: as §1, §2, §3

B. adolescentis MWR144 = test: MIC by broth microdilution (CLSI) against B. adolescentis; conditions: Bifidobacterium adolescentis, read-out: minimum inhibitory concentration (MIC) B. adolescentis
Experimental: as §1, §2, §3

[6] = test system: Staphylococcus aureus ATCC29213; test: MIC by broth microdilution (CLSI) against S. aureus; conditions: read-out: minimum inhibitory concentration (MIC) S. aureus
Experimental: as §1, §2, §3

[7] = test system: Enterococcus faecalis ATCC29212; test: MIC by broth microdilution (CLSI) against E. faecalis; conditions: read-out: minimum inhibitory concentration (MIC) E. faecalis
Experimental: as §1, §2, §3

In the case of `c1cnc2sc(-c3nc4cc(-c5ccc6[nH]c(-c7ccncc7)nc6c5)ccc4[nH]3)cc2c1` [Example 1, 2-(2′-(pyridin-4-yl)-1H,1′H-5,5′-bibenzo[d]imidazol-2-yl)thieno[2,3-b]pyridine], the MIC [1] is reported as at most 1 µg/mL, the MIC [2] is reported as at least 64 µg/mL and the MIC [3] is reported as at least 64 µg/mL. For the same molecule, the MIC [4] was at least 64 µg/mL, the MIC [5] was at least 64 µg/mL and the MIC (B. adolescentis MWR144) was at most 32 µg/mL. The MIC [6] was at least 64 µg/mL and the MIC [7] was at least 64 µg/mL.
`c1ccc2sc(-c3nc4cc(-c5ccc6[nH]c(-c7ccncc7)nc6c5)ccc4[nH]3)cc2c1` [Example 2, 2-(benzo[b]thiophen-2-yl)-2′-(pyridin-4-yl)-1H,1′H-5,5′-bibenzo[d]imidazole] was tested, and the MIC [1] was at most 4 µg/mL, the MIC [2] was at least 64 µg/mL and the MIC [3] was at least 64 µg/mL. For the same molecule, the MIC [4] was at least 64 µg/mL, the MIC [5] was at least 64 µg/mL and the MIC (B. adolescentis MWR144) was at least 64 µg/mL. It also gave an MIC [6] of at least 64 µg/mL and an MIC [7] of at least 64 µg/mL.
With `c1cc(-c2nc3cc(-c4ccc5[nH]c(-c6ccc7occc7c6)nc5c4)ccc3[nH]2)ccn1` [Example 3, 2-(benzofuran-5-yl)-2′-(pyridin-4-yl)-1H,1′H-5,5′-bibenzo[d]imidazole] the MIC [1] was at most 1 µg/mL, the MIC [2] was at least 64 µg/mL and the MIC [3] was at least 64 µg/mL. For the same molecule, the MIC [4] was at most 32 µg/mL, the MIC [5] was at most 32 µg/mL and the MIC (B. adolescentis MWR144) was at most 4 µg/mL. For the same molecule, the MIC [6] was at most 1 µg/mL and the MIC [7] was at most 1 µg/mL.
Work on `c1cc(-c2nc3ccc(-c4ccc5[nH]c(-c6ccc7[nH]cnc7c6)nc5c4)cc3[nH]2)ccn1` [Example 4, 6-(2′-(pyridin-4-yl)-1H,3′H-5,5′-bibenzo[d]imidazol-2-yl)benzo[d]imidazole] yielded an MIC [1] of at most 1 µg/mL, an MIC [2] of at least 64 µg/mL and an MIC [3] of at least 64 µg/mL. The MIC [4] was at least 64 µg/mL, the MIC [5] was at least 64 µg/mL and the MIC (B. adolescentis MWR144) was at least 64 µg/mL. For the same molecule, the MIC [6] was at least 64 µg/mL and the MIC [7] was at least 64 µg/mL.
Work on `c1cc(-c2nc3ccc(-c4ccc5[nH]c(-c6ccc7sccc7c6)nc5c4)cc3[nH]2)ccn1` [Example 5, 2-(benzo[b]thiophen-5-yl)-2′-(pyridin-4-yl)-1H,3′H-5,5′-bibenzo[d]imidazole] yielded an MIC [1] of at most 1 µg/mL, an MIC [2] of at least 64 µg/mL and an MIC [3] of at least 64 µg/mL. For the same molecule, the MIC [4] was at least 64 µg/mL, the MIC [5] was at least 64 µg/mL and the MIC (B. adolescentis MWR144) was at most 32 µg/mL. For the same molecule, the MIC [6] was at least 64 µg/mL and the MIC [7] was at most 32 µg/mL.
For `c1cc(-c2nc3ccc(-c4ccc5[nH]c(-c6ccc7[nH]ccc7c6)nc5c4)cc3[nH]2)ccn1` [Example 6, 2-(1H-indol-5-yl)-2′-(pyridin-4-yl)-1H,3′H-5,5′-bibenzo[d]imidazole], the MIC [1] was at most 1 µg/mL, the MIC [2] was at least 64 µg/mL and the MIC [3] was at least 64 µg/mL. For the same molecule, the MIC [4] was at least 64 µg/mL, the MIC [5] was at least 64 µg/mL and the MIC (B. adolescentis MWR144) was at most 32 µg/mL. It also gave an MIC [6] of at most 32 µg/mL and an MIC [7] of at least 64 µg/mL.
In the case of `c1cc(-c2nc3ccc(-c4ccc5[nH]c(-c6ccc7c(c6)CCO7)nc5c4)cc3[nH]2)ccn1` [Example 7, 2-(2,3-dihydrobenzofuran-5-yl)-2′-(pyridin-4-yl)-1H,3′H-5,5′-bibenzo[d]imidazole], the MIC [1] is reported as at most 1 µg/mL, the MIC [2] is reported as at least 64 µg/mL and the MIC [3] is reported as at least 64 µg/mL. It also gave an MIC [4] of at least 64 µg/mL, an MIC [5] of at least 64 µg/mL and an MIC (B. adolescentis MWR144) of at most 4 µg/mL. The MIC [6] was at least 64 µg/mL and the MIC [7] was at most 4 µg/mL.
Work on `c1cc(-c2nc3cc(-c4ccc5[nH]c(-c6ccc7nccn7c6)nc5c4)ccc3[nH]2)ccn1` [Example 8, 2-(imidazo[1,2-a]pyridin-6-yl)-2′-(pyridin-4-yl)-1H,1′H-5,5′-bibenzo[d]imidazole] yielded an MIC [1] of at most 1 µg/mL, an MIC [2] of at least 64 µg/mL and an MIC [3] of at least 64 µg/mL. For the same molecule, the MIC [4] was at least 64 µg/mL, the MIC [5] was at least 64 µg/mL and the MIC (B. adolescentis MWR144) was at least 64 µg/mL. The MIC [6] was at least 64 µg/mL and the MIC [7] was at least 64 µg/mL.
`c1cc(-c2nc3cc(-c4ccc5[nH]c(-c6ccc7c(c6)OCO7)nc5c4)ccc3[nH]2)ccn1` [Example 9, 2-(benzo[d][1,3]dioxol-5-yl)-2′-(pyridin-4-yl)-1H,1′H-5,5′-bibenzo[d]imidazole] showed an MIC [1] of at most 1 µg/mL, an MIC [2] of at least 64 µg/mL and an MIC [3] of at least 64 µg/mL. It also gave an MIC [4] of at least 64 µg/mL, an MIC [5] of at least 64 µg/mL and an MIC (B. adolescentis MWR144) of at least 64 µg/mL. It also gave an MIC [6] of at least 64 µg/mL and an MIC [7] of at least 64 µg/mL.
Molecule `c1ccc2oc(-c3nc4cc(-c5ccc6[nH]c(-c7ccncc7)nc6c5)ccc4[nH]3)cc2c1` [Example 10, 2-(benzofuran-2-yl)-2′-(pyridin-4-yl)-1H,1′H-5,5′-bibenzo[d]imidazole] has an MIC [1] of at most 1 µg/mL, an MIC [2] of at least 64 µg/mL and an MIC [3] of at least 64 µg/mL. It also gave an MIC [4] of at least 64 µg/mL, an MIC [5] of at least 64 µg/mL and an MIC (B. adolescentis MWR144) of at most 32 µg/mL. The MIC [6] was at most 32 µg/mL and the MIC [7] was at least 64 µg/mL.
`c1cc(-c2nc3cc(-c4ccc5[nH]c(-c6cc7ccncc7s6)nc5c4)ccc3[nH]2)ccn1` [Example 11, 2-(2′-(pyridin-4-yl)-1H,1′H-[5,5′-bibenzo[d]imidazol]-2-yl)thieno[2,3-c]pyridine] gave an MIC [1] of at most 1 µg/mL, an MIC [2] of at least 64 µg/mL and an MIC [3] of at least 64 µg/mL. For the same molecule, the MIC [4] was at least 64 µg/mL, the MIC [5] was at least 64 µg/mL and the MIC (B. adolescentis MWR144) was at least 64 µg/mL. It also gave an MIC [6] of at least 64 µg/mL and an MIC [7] of at least 64 µg/mL.
Molecule `c1cncc(-c2nc3cc(-c4ccc5[nH]c(-c6ccc7nccn7c6)nc5c4)ccc3[nH]2)c1` [Example 12, 2-(imidazo[1,2-a]pyridin-6-yl)-2′-(pyridin-3-yl)-1H,1′H-5,5′-bibenzo[d]imidazole] has an MIC [1] of at most 1 µg/mL, an MIC [2] of at least 64 µg/mL and an MIC [3] of at least 64 µg/mL. It also gave an MIC [4] of at least 64 µg/mL, an MIC [5] of at least 64 µg/mL and an MIC (B. adolescentis MWR144) of at least 64 µg/mL. It also gave an MIC [6] of at least 64 µg/mL and an MIC [7] of at least 64 µg/mL.
Work on `c1cncc(-c2nc3cc(-c4ccc5[nH]c(-c6cc7cccnc7s6)nc5c4)ccc3[nH]2)c1` [Example 13, 2-(2′-(pyridin-3-yl)-1H,1′H-[5,5′-bibenzo[d]imidazol]-2-yl)thieno[2,3-b]pyridine] yielded an MIC [1] of at most 1 µg/mL, an MIC [2] of at least 64 µg/mL and an MIC [3] of at least 64 µg/mL. For the same molecule, the MIC [4] was at least 64 µg/mL, the MIC [5] was at least 64 µg/mL and the MIC (B. adolescentis MWR144) was at least 64 µg/mL. It also gave an MIC [6] of at least 64 µg/mL and an MIC [7] of at least 64 µg/mL.
